Laboratory results taken from article PMC5601180, “Uptake and metabolism of sulphated steroids by the blood–brain barrier in the adult male rat” (Journal of Neurochemistry, 2017).
Where two headings read alike, the source gives them in different places.

Assays:
[1] = Bilateral brain perfusion, capillary depletion and separation of free and sulphated 3H-steroids; type: in vivo, rat; conditions: for radioactivity in capillary fraction / radioactivity in parenchyma fraction / recovery of total homogenate radioactivity into capillary fraction / recovery of total homogenate radioactivity into parenchyma fraction: after 0.5 min bilateral perfusion, mean ± SEM, n = 5; for percentage of 3H-label as free steroid, parenchyma versus capillary: after 0.5 min perfusion, Fig. 4, p < 0.02; for desulphation on uptake into brain: within 0.5 min of uptake, brain perfusion in situ
Experimental: Brains were bilaterally perfused for 0.5 min with ^3H‐labelled DHEAS 1.25 or 6.0 μCi (0.046 or 0.221 MBq)/mL (13.5 or 64.9 nM) or PregS 1.0 μCi (0.037 MBq)/mL (47.6 nM). The hindbrain was removed and each hemisphere homogenised in 2 vols (w/v) buffer containing (in mM) NaCl 141, KCl 4, NaH2PO4 1, CaCl2 2.8, MgCl2 1, HEPES 10, D‐glucose 10, pH 7.4. A sample of the homogenate of the whole right hemisphere was removed for scintillation counting, and the remainder retained as the whole brain homogenate.
The left hemisphere homogenate was separated into capillary‐enriched and capillary‐depleted fractions by the method of Triguero et al. (1990). For this, an equal volume of 26% dextran (w/w) solution was added to the homogenate and a sample taken for liquid scintillation counting before centrifugation at 5300 g for 15 min at 4°C. The upper layer was taken as the capillary‐depleted fraction and the pellet as the capillary‐enriched fraction.
Before extraction, fractions were sonicated in 5 vols ice‐cold, 5 mM potassium phosphate buffer, pH 7. Small portions (150 μL) were removed for measurement of protein content (Bradford 1976) and total radioactivity. For the latter, homogenate was solubilised (15 min, 20°C) in 10 vols Soluene then bleached (2 h, 50°C) with 0.3 vol hydrogen peroxide before counting in Ecoscint H containing Triton X‐100 (6% v/v), glacial acetic acid (0.6% v/v) and butylated hydroxytoluene (2% w/v). The remainder of each homogenate was extracted as described in detail elsewhere (Ebner et al. 2006; Sujkovic et al. 2009), to give free steroid and steroid sulphate fractions. First, homogenates were extracted into 20 vols ethanol containing acetic acid 3% (v/v). After centrifugation (28 000 g, 30 min, 25°C) to remove denatured protein, the extracts were delipidated by partitioning three times against 10 vols isooctane. Extracts were dried down under vacuum and redissolved in ethanol, which was then diluted to 20% v/v in 5 mM potassium phosphate buffer, pH 7.0 at a total volume of 20 ml. Separation of free and sulphated steroids was achieved by passage through a 60 mg Oasis MAX® cartridge. After washing the cartridge with 5 mL ethanol at 20% v/v in ammonium acetate (20 mM, pH 7), free steroids were eluted in 4 mL ethyl acetate. Passage of 20 mL ethanol at 60% v/v in formate/pyridine buffer (20 mM, pH 3) eluted any steroid glucuronides present. Finally, steroid sulphates were eluted in 30 mL 60% v/v ethanol containing ammonium carbonate 1% (w/v). To measure the radioactivity of each fraction, portions were dried down and then redissolved in Ecoscint H for counting. The remainder was dried down, redissolved in ethanol 96% v/v and stored at −20°C for subsequent analysis by TLC.

[2] = TLC analysis of 3H-steroid metabolites in brain fractions after perfusion; type: in vivo, rat; conditions: after 0.5 min perfusion with the 3H-steroid sulphate
Text: For the analysis of ^3H‐steroid metabolites, samples were spotted onto TLC plates for chromatography in the following solvent systems: A (for sulphated steroids), ethyl acetate:ethanol:ammonia (5 : 5 : 1, v/v); B (for free steroids) cyclohexane:n‐butyl acetate (1 : 2, v/v); C (for acetylated steroids), isooctane:ethyl acetate (13 : 7, v/v). Non‐radioactive steroid standards could be visualised by exposure to iodine vapour whereas the ^3H‐steroids were detected by placing the TLC plates in contact with imaging film for subsequent visualisation in a phosphorimager. Additional analysis of the steroid sulphates employed elution from the TLC plate in ammoniated ethanol then drying down and redissolving in sodium acetate buffer, 0.5 M, pH 5.0 for desulphation by incubation with Helix sulphatase (1 mg/mL, 40°C overnight followed by 55°C for 3 h). The resulting free steroids were adsorbed onto a 60 mg Oasis HLB® cartridge and eluted in 5 mL ethyl acetate. This eluate was dried down and analysed by TLC as above for free steroids. Further identification of ^3H‐steroid metabolites was obtained by acetylating them alongside both ^3H‐labelled and non‐radioactive standards. The TLC eluates or standards were dried down and redissolved in 200 μL pyridine. An equal volume of acetic anhydride was then added followed by incubation at 37°C for 2 h. […]

[3] = Rat brain perfusion in situ: uptake of 3H-steroid sulphates and markers (Vd, Kin, PS); conditions: for K in, unidirectional transfer coefficient / PS, permeability–surface area product: 0.5 min perfusion; for K in, unidirectional transfer coefficient: corrected for vascular space (sucrose Vd), n ≥ 3; for PS, permeability–surface area product: from K in by Renkin–Crone equation with diazepam K in as flow; for position of log PS in plot against cLog Poct relative to the line for passively permeating compounds: PS from K in as slope of Vd against time 0.25 to 0.5 min, implies net efflux
Experimental: Each animal also received intraperitoneal heparin, 10 000 U/kg. Body temperature was maintained at 37°C with a heating pad.
For analysis of free and sulphated steroids and for steryl‐sulfate sulfohydrolase (EC 3.1.6.2; trivial name steroid sulphatase) assays, both hemispheres were perfused, via right and left common carotid arteries, and 0.8 mM MgCl2 replaced 0.8 mM MgSO4 in the solution. The perfusate was delivered at a constant rate of 6 mL/min for hemi‐perfusions and 12 mL/min for bilateral perfusions, maintaining a net perfusion pressure of 40–70 mm Hg.
The remaining tissue of the right hemisphere was homogenised and samples (~50 mg) taken in triplicate (“remainder samples”). Triplicate samples of the perfusate were also taken. Samples were weighed into vials and dissolved (48 h at 20°C) in 0.5 mL Solvable before addition of 4.5 mL Optiphase 2 scintillation fluid for counting of radioactivity.
Brain uptake was calculated as a volume of distribution V d, where V d (μL/g) = (dpm/g tissue)/(dpm/μL perfusate). The unidirectional transfer coefficients, (K in, μL/g/min), for DHEAS and for PregS were calculated from the V d at 0.5 min, corrected with the V d for the vascular space marker sucrose.

[4] = rats, ref Kishimoto and Hoshi (1972), cited from earlier work
[5] = after intracerebral injection, rats; ref Asaba et al. (2000); cited from earlier work
[6] = Remainder of brain tissue, mean ± SEM

SMILES	radioactivity in capillary fraction [1] [dpm/mg protein]	radioactivity in parenchyma fraction [1] [dpm/mg protein]	recovery of total homogenate radioactivity into capillary fraction [1] [%]	recovery of total homogenate radioactivity into parenchyma fraction [1] [%]	percentage of 3H-label as free steroid, parenchyma versus capillary [1]	desulphation on uptake into brain [1] [%]	metabolism in brain fractions [2]	K in, unidirectional transfer coefficient ([3]; Cerebellum, mean ± SEM) [µL/g/min]	K in, unidirectional transfer coefficient ([3]; Hippocampus, mean ± SEM) [µL/g/min]	K in, unidirectional transfer coefficient ([3]; Hypothalamus, mean ± SEM) [µL/g/min]	K in, unidirectional transfer coefficient ([3]; Medulla, mean ± SEM) [µL/g/min]	position of log PS in plot against cLog Poct relative to the line for passively permeating compounds [3]	K in, unidirectional transfer coefficient ([3]; Parietal cortex, mean ± SEM) [µL/g/min]	K in, unidirectional transfer coefficient [3, 6] [µL/g/min]	K in, unidirectional transfer coefficient ([3]; Striatum, mean ± SEM) [µL/g/min]	K in, unidirectional transfer coefficient ([3]; Sup. colliculus, mean ± SEM) [µL/g/min]	other results
CC(=O)[C@H]1CCC2C3CC=C4C[C@@H](OS(=O)(=O)O)CC[C@]4(C)C3CC[C@@]21C (stereo partly shown) [PregS, pregnenolone sulphate]	1856 ± 245	1988 ± 328	8.8 ± 1.8	68.0 ± 10.0	significantly higher percentage of the free steroid in the parenchyma than in the brain capillaries	> 50	no further metabolism of PregS beyond the liberation of free steroid pregnenolone	256.8 ± 43.7	292.1 ± 24.2	277.6 ± 48.8	196.4 ± 39.5	below the 95% confidence limits of the line of best fit for passively permeating compounds	351.5 ± 9.8	311.2 ± 20.8	328.6 ± 41.9	404.9 ± 30.4	PS, permeability–surface area product ([3]; Cerebellum): 392.6 ± 103.4 µL/g/min; PS, permeability–surface area product ([3]; Hippocampus): 303.5 ± 26.0 µL/g/min; PS, permeability–surface area product ([3]; Hypothalamus): 295.8 ± 54.8 µL/g/min; PS, permeability–surface area product ([3]; Medulla): 328.6 ± 117.5 µL/g/min; PS, permeability–surface area product ([3]; Parietal cortex): 377.2 ± 11.3 µL/g/min; PS, permeability–surface area product ([3]; Remainder of brain tissue): 326.5 ± 22.9 µL/g/min; PS, permeability–surface area product ([3]; Striatum): 351.5 ± 48.1 µL/g/min; PS, permeability–surface area product ([3]; Sup. colliculus): 419.6 ± 32.5 µL/g/min; V d, corrected for sucrose space (vascular volume), control ([3]; rat, in vivo): 165.63 ± 10.40 µL/g; time at which brain uptake (Vd) reached a maximum ([3]; rat, in vivo): ≤ 1 min
C[C@]12CC[C@H](OS(=O)(=O)O)CC1=CCC1C2CC[C@]2(C)C(=O)CCC12 (stereo partly shown) [DHEAS, dehydroepiandrosterone sulphate]	3451 ± 511	3279 ± 388	2.2 ± 0.3	25.7 ± 2.3	significantly higher percentage of the free steroid in the parenchyma than in the brain capillaries	> 50	underwent 17‐hydroxylation to form androstenediol in both the steroid sulphate and the free steroid fractions, with some additional formation of androstenedione in the latter	38.6 ± 7.0	45.4 ± 3.4	57.7 ± 2.7	39.4 ± 8.9	below the 95% confidence limits of the line of best fit for passively permeating compounds	38.4 ± 4.5	44.8 ± 4.1	47.2 ± 3.9	63.5 ± 6.7	radiolabel accumulating as free steroid in the brain ([4]; intracardiac injection): ~50%; radiolabel accumulating as free steroid in the brain ([4]; intracerebral injection): 5%; 3H-label appearing in the jugular vein as unchanged steroid sulphate [5]: 90%; V d, corrected for sucrose space (vascular volume), control ([3]; brain uptake after 0.5 min perfusion without inhibitors (control of Fig. 3), mean ± SEM, n = 3): 32.47 ± 2.03 µL/g
